Experimental data published in US20220023289A1, “Application Of Pyrroloquinoline Quinone In Preparation Of Medicament Used For Preventing And Treating Acute Altitude Sickness And Acute Altitude Hypoxia Injury” (priority 2018, published 2022).

Legend:
[1] = system: rats with acute altitude hypoxia injury; test: Serum energy metabolism indexes (ATP, lactic acid) in rats with acute altitude hypoxia injury; type: in vivo, Wistar rat
Protocol: Determination of adenosine triphosphate (ATP): Perform enzyme-linked immunosorbent assay by double-antibody one-step sandwich method. To the coated microwells pre-coated with rat adenosine triphosphate (ATP) capture antibody, add in sequence the specimens, standard, and HRP-labeled detection antibody, and then incubate and wash thoroughly. Use a substrate TMB for color development, TMB is converted into blue under the catalysis of peroxidase and converted into the final yellow color under the action of acid. The color intensity is positively correlated with the rat adenosine triphosphate (ATP) in the sample. […] Determination of lactic acid (LC): Perform enzyme-linked immunosorbent assay by double-antibody one-step sandwich method. To the coated microwells pre-coated with rat lactic acid (LC) capture antibody, add in sequence the specimens, standard, and HRP-labeled detection antibody, and then incubate and wash thoroughly. Use a substrate TMB for color development. TMB is converted into blue under the catalysis of peroxidase and converted into the final yellow color under the action of acid. The color intensity is positively correlated with the rat lactic acid (LC) in the sample.

[2] = system: rats exposed to acute altitude hypoxia; test: Myocardial enzyme activity in rats exposed to acute altitude hypoxia; type: in vivo, Wistar rat
Protocol: (§1) Select healthy Wistar rats weight 160-200 g, half female and half male. After feeding for 3 days, these Wistar rats are randomly divided into ten groups according to their body weight, each group has 16±2 rats. The groups are divided as follows: five groups of the hypoxic exposure drug test group, respectively, are given 0.91 mg/kg, 1.83 mg/kg, 3.66 mg/kg, 7.31 mg/kg, and 14.63 mg/kg drugs. […] After continuous intragastric administration for 7 days, the animals in the hypoxic exposure group are simultaneously put into the decompression and hypoxia compound experimental chamber, the hatch is closed, and the pressure is reduced at a speed of 10 m/s. After being raised to an altitude of 6000 m and maintained for 8 hours, the speed in 10 m/s drops is reduced to normal altitude, open the hatch, and then take out the animal, collect blood samples (after standing for 1 hour, the supernatant is centrifuged and stored at −20° C.), and liver tissue samples. Detection indicator includes body weight, serum blood glucose, ATP, lactic acid, endothelin, nitric oxide, SOD, CO, MDA related to oxidative stress, and total protein, albumin, triglycerides, total cholesterol, high-density lipoprotein cholesterol, low-density lipoprotein cholesterol, glutamic pyruvic transaminase, total bilirubin, gluamic oxalacetic transaminase, serum urea nitrogen, creatinine, uric acid, lactate dehydrogenase, creatine kinase, α-hydroxybutyrate dehydrogenase; liver ATP, hepatic glycogen. Except that the formal oxygen control animal group is not put into the decompression and hypoxia compound experimental chamber, other experimental conditions and detection indicators are the same.
(§2) Measure blood glucose, total protein, albumin, triglycerides, total cholesterol, high-density lipoprotein cholesterol, low-density lipoprotein cholesterol, glutamic-pyruvic transaminase, total bilirubin, glutamic oxalacetic transaminase, serum urea nitrogen, creatinine, uric acid, lactate dehydrogenase, creatine kinase, α-hydroxybutyrate dehydrogenase, blood homocysteine by using an automatic blood biochemical analyzer.

[3] = Body weight of mice before closed hypoxia tolerance test
[4] = system: rats exposed to acute altitude hypoxia; test: Serum homocysteine in rats exposed to acute altitude hypoxia; type: in vivo, Wistar rat
Protocol: as §1, §2

[5] = system: mice exposed to high altitude hypoxia; test: Exhaustive swimming experiment in mice exposed to high altitude hypoxia (6000 m); type: in vivo, Kunming mice; settings: male mice, 6000 m
From the text: Select healthy male Kunming mice weight 18-22 g.

[6] = female rats, hypoxia, 0.91 mg/kg
[7] = female rats, hypoxia, 1.83 mg/kg
[8] = female rats, hypoxia, 3.66 mg/kg
[9] = female rats, hypoxia, 7.31 mg/kg
[10] = female rats, hypoxia, 14.63 mg/kg
[11] = female rats, normoxia, 3.66 mg/kg
[12] = male rats, hypoxia, 14.63 mg/kg

In the case of `O=C(O)c1cc(C(=O)O)c2c(n1)C(=O)C(=O)c1cc(C(=O)O)[nH]c1-2` [PQQ, pyrroloquinoline quinone], the “serum Lactic acid” value [1, 6] is reported as 222.06 ± 12.56 ng/L, the “serum Lactic acid” value [1, 7] is reported as 221.04 ± 14.36 ng/L and the “serum Lactic acid” value [1, 8] is reported as 242.8 ± 8.13 ng/L. For the same compound, the “serum Lactic acid” value [1, 9] was 196.41 ± 11.86 ng/L, the “serum Lactic acid” value [1, 10] was 173.09 ± 24.20 ng/L and the “effect on serum ATP content” value ([1]; female rats, normoxia) was “no significant effect”. The “effect on serum lactic acid content” value ([1]; female rats, normoxia) was “reducing”, the “serum Lactic acid” value [1, 11] was 116.73 ± 13.32 ng/L and the “effect on serum ATP and lactic acid content” value ([1]; hypoxia exposed female rats) was “increasing”. For the same compound, the “effect on serum ATP and lactic acid content” value ([1]; male rats) was “no significant effects”, the “serum Lactic acid” value ([1]; male rats, hypoxia, 0.91 mg/kg) was 188.70 ± 29.68 ng/L and the “serum Lactic acid” value ([1]; male rats, hypoxia, 1.83 mg/kg) was 177.33 ± 19.55 ng/L. The “serum Lactic acid” value ([1]; male rats, hypoxia, 3.66 mg/kg) was 189.12 ± 24.64 ng/L, the “serum Lactic acid” value ([1]; male rats, hypoxia, 7.31 mg/kg) was 172.64 ± 12.25 ng/L and the “serum Lactic acid” value [1, 12] was 180.81 ± 24.64 ng/L. The “Creatine Kinase” value [2, 6] was 505.43 ± 202.03 U/L, the Lactate dehydrogenase [2, 6] was 627.43 ± 253.66 U/L and the α-hydroxybutyrate dehydrogenase [2, 6] was 270.28 ± 111.79 U/L. For the same compound, the “Creatine Kinase” value [2, 7] was 508.57 ± 235.83 U/L, the Lactate dehydrogenase [2, 7] was 650.00 ± 338.13 U/L and the α-hydroxybutyrate dehydrogenase [2, 7] was 286.71 ± 154.38 U/L. The “Creatine Kinase” value [2, 8] was 459.14 ± 239.34 U/L, the Lactate dehydrogenase [2, 8] was 544.14 ± 314.26 U/L and the α-hydroxybutyrate dehydrogenase [2, 8] was 233.43 ± 147.72 U/L. The “Creatine Kinase” value [2, 9] was 454.86 ± 241.51 U/L, the Lactate dehydrogenase [2, 9] was 499.71 ± 320.46 U/L and the α-hydroxybutyrate dehydrogenase [2, 9] was 210.14 ± 140.24 U/L. For the same compound, the “Creatine Kinase” value [2, 10] was 439.86 ± 222.18 U/L, the Lactate dehydrogenase [2, 10] was 496.86 ± 259.65 U/L and the α-hydroxybutyrate dehydrogenase [2, 10] was 208.86 ± 112.12 U/L. The “effect on serum lactic dehydrogenase, creatine kinase, α-hydroxybutyrate dehydrogenase activity” value ([2]; female rats, normoxia) was “increasing”, the “Creatine Kinase” value [2, 11] was 1024.00 ± 313.62 U/L and the Lactate dehydrogenase [2, 11] was 1199.14 ± 204.93 U/L. For the same compound, the α-hydroxybutyrate dehydrogenase [2, 11] was 537.29 ± 92.21 U/L, the “effect on serum lactic dehydrogenase, creatine kinase, α-hydroxybutyrate dehydrogenase activity” value ([2]; hypoxia exposed female rats) was “has been not found” and the “effect on serum lactate dehydrogenase, creatine kinase, α-hydroxybutyrate dehydrogenase” value ([2]; hypoxia exposed male rats) was “has not been found”. The “Creatine Kinase” value ([2]; male rats, hypoxia, 0.91 mg/kg) was 443.63 ± 260.18 U/L, the Lactate dehydrogenase ([2]; male rats, hypoxia, 0.91 mg/kg) was 463.38 ± 364.37 U/L and the α-hydroxybutyrate dehydrogenase ([2]; male rats, hypoxia, 0.91 mg/kg) was 218.00 ± 173.09 U/L. For the same compound, the “Creatine Kinase” value ([2]; male rats, hypoxia, 1.83 mg/kg) was 544.63 ± 418.71 U/L, the Lactate dehydrogenase ([2]; male rats, hypoxia, 1.83 mg/kg) was 650.13 ± 573.72 U/L and the α-hydroxybutyrate dehydrogenase ([2]; male rats, hypoxia, 1.83 mg/kg) was 286.75 ± 260.98 U/L. The “Creatine Kinase” value ([2]; male rats, hypoxia, 3.66 mg/kg) was 544.50 ± 243.30 U/L, the Lactate dehydrogenase ([2]; male rats, hypoxia, 3.66 mg/kg) was 588.13 ± 360.36 U/L and the α-hydroxybutyrate dehydrogenase ([2]; male rats, hypoxia, 3.66 mg/kg) was 256.63 ± 154.55 U/L. The “Creatine Kinase” value ([2]; male rats, hypoxia, 7.31 mg/kg) was 640.25 ± 333.16 U/L, the Lactate dehydrogenase ([2]; male rats, hypoxia, 7.31 mg/kg) was 767.38 ± 546.88 U/L and the α-hydroxybutyrate dehydrogenase ([2]; male rats, hypoxia, 7.31 mg/kg) was 325.63 ± 238.56 U/L. The “Creatine Kinase” value [2, 12] was 510.89 ± 240.61 U/L, the Lactate dehydrogenase [2, 12] was 510.44 ± 275.48 U/L and the α-hydroxybutyrate dehydrogenase [2, 12] was 218.67 ± 118.08 U/L. For the same compound, the “weight 1 day” value ([3]; female mice, 1.32 mg/kg) was 20.31 ± 1.29 g, the “weight 3 days” value ([3]; female mice, 1.32 mg/kg) was 22.33 ± 1.91 g and the “weight 1 day” value ([3]; female mice, 2.64 mg/kg) was 19.83 ± 1.19 g. The “weight 3 days” value ([3]; female mice, 2.64 mg/kg) was 22.22 ± 1.28 g, the “weight 1 day” value ([3]; female mice, 5.28 mg/kg) was 20.58 ± 1.07 g and the “weight 3 days” value ([3]; female mice, 5.28 mg/kg) was 22.52 ± 1.71 g. For the same compound, the “weight 1 day” value ([3]; female mice, 10.56 mg/kg) was 20.13 ± 1.64 g, the “weight 3 days” value ([3]; female mice, 10.56 mg/kg) was 21.92 ± 1.83 g and the “weight 1 day” value ([3]; female mice, 21.12 mg/kg) was 20.19 ± 1.34 g. The “weight 3 days” value ([3]; female mice, 21.12 mg/kg) was 22.49 ± 1.77 g, the “weight 1 day” value ([3]; male mice, 1.32 mg/kg) was 15.46 ± 1.04 g and the “weight 3 days” value ([3]; male mice, 1.32 mg/kg) was 17.74 ± 1.30 g. The “weight 1 day” value ([3]; male mice, 2.64 mg/kg) was 15.40 ± 1.03 g, the “weight 3 days” value ([3]; male mice, 2.64 mg/kg) was 17.46 ± 1.29 g and the “weight 1 day” value ([3]; male mice, 5.28 mg/kg) was 15.51 ± 1.11 g. For the same compound, the “weight 3 days” value ([3]; male mice, 5.28 mg/kg) was 17.41 ± 1.23 g, the “weight 1 day” value ([3]; male mice, 10.56 mg/kg) was 15.32 ± 1.10 g and the “weight 3 days” value ([3]; male mice, 10.56 mg/kg) was 16.20 ± 1.03 g. The “weight 1 day” value ([3]; male mice, 21.12 mg/kg) was 15.45 ± 0.97 g, the “weight 3 days” value ([3]; male mice, 21.12 mg/kg) was 17.54 ± 1.14 g and the Serum homocysteine [4, 6] was 9.43 ± 1.4 µmol/L. For the same compound, the Serum homocysteine [4, 7] was 10.66 ± 2.13 µmol/L, the Serum homocysteine [4, 8] was 9.63 ± 1.97 µmol/L and the Serum homocysteine [4, 9] was 8.6 ± 1.72 µmol/L. The Serum homocysteine [4, 10] was 8.11 ± 1.37 µmol/L, the “effect on serum homocysteine” value ([4]; female rats, normoxia) was “no significant effects” and the Serum homocysteine [4, 11] was 9.76 ± 1.16 µmol/L. For the same compound, the “effect on serum homocysteine” value ([4]; hypoxia exposed female rats) was “no significant effects”, the “effect on serum homocysteine” value ([4]; hypoxia exposed male rats) was “have been not found” and the Serum homocysteine ([4]; male rats, hypoxia, 0.91 mg/kg) was 11.18 ± 2.09 µmol/L. It also gave a Serum homocysteine ([4]; male rats, hypoxia, 1.83 mg/kg) of 13.24 ± 3.87 µmol/L, a Serum homocysteine ([4]; male rats, hypoxia, 3.66 mg/kg) of 13.65 ± 3.24 µmol/L and a Serum homocysteine ([4]; male rats, hypoxia, 7.31 mg/kg) of 11.48 ± 2.36 µmol/L. The Serum homocysteine [4, 12] was 12.78 ± 2.87 µmol/L, the “start time of exhaustion swimming death” value [5] was “delayed” and the “increasing rate of survival time” value ([5]; 1.32 mg/kg) was 52.49%.
